According to publication PMC5708526, “Targeting secondary protein complexes in drug discovery: studying the druggability and chemical biology of the HSP70/BAG1 complex” (Chemical Communications (Cambridge, England), 2017):

Biological target: T1, HSP72 (Homo sapiens, UniProt P0DMV8)
T1 construct: made in house
Test: FP assay binding window and Z' determination
Description: As a result, the assay was not statistically robust, so could not be used in competition experiments (Z′ = 0.36).[11],[20],[21] We hypothesised that the high lipophilicity of 10 (clog P = 6.9) was causing the small binding window, either due to aggregation, even at very low concentrations, or its large hydrate volume.[22] Because the lipophilicity of the specific-ligand portion of the probe was fixed by the need for high affinity to the HSP70 target, we focused on changes to the solvent exposed fluorophore. ATTO-488, a green-shifted fluorophore that contains two sulfonic acid groups, was selected as an alternative to fluorescein (see ESI ^†), as this reduced the clog P of the bisaryl probe 11 to –3.9.[21] The binding window of ATTO-488 bisaryl FP-probe 11 measured at a fixed and apparently saturating concentration of HSP72 (5 μM), was now greater than 150 mP (Z′ = 0.63, Fig. 3A and Fig. S1, ESI ^†). […]
TRIS Tris(hydroxymethyl)aminomethane
General Information: Unless otherwise stated the aqueous assay buffer contained 50 mM TRIS base pH 7.4, 150 mM NaCl, 6 mM MgCl2, 1 mM DTT, 0.1% (wt/wt) CHAPS. The assay was conducted using 384 Plus F ProxiPlates (PerkinElmer) with a final assay volume of 10 μL. Plates were centrifuged at 1000 rpm for 1 minute prior to incubation and read using an 2103 Envision Multilable Plate Reader. Excitation and emission wavelengths used for green probes were 480 nm and 535 nm, respectively.
Fluorescence polarisation was measured in units of millipolarization (mP). All experiments were performed in triplicate, unless otherwise stated. Data were plotted and analysed using GraphPad Prism 6, graphical data represents the mean ± standard error of the mean for a single representative experiment. ATP-derived fluorescent probes (1.0 mM in aqueous) were purchased from Jena Bioscience. Human BAG-1M (10.9 μM in 20 mM TRIS base pH 7.4, 100 mM NaCl, 1 mM DTT, 1% (v/v) glycerol) was purchased from Enzo Life Sciences.
Determination of optimal probe concentration: To each well, 5 μL of HSP72 (10 µM in assay buffer) or 5 μL assay buffer and increasing concentrations of probe (5 μL, two-fold dilution series) were added. Fluorescence polarisation values for the tracer ± protein were plotted using GraphPad prism 6. […]
Z’ determination: To each well, 5 µL of probe (20 nM in assay buffer) and either 5 µL of HSP70 (in assay buffer) or 5 µL of assay buffer were added. Fluorescent polarisation values from 96 wells were used to calculate the mean and standard deviation for each data set. Z’-factors were calculated using the equation given below (sample refers to probe in the absence of protein and control refers to probe in the presence of protein). […]

T1 sequence (P0DMV8 whole entry): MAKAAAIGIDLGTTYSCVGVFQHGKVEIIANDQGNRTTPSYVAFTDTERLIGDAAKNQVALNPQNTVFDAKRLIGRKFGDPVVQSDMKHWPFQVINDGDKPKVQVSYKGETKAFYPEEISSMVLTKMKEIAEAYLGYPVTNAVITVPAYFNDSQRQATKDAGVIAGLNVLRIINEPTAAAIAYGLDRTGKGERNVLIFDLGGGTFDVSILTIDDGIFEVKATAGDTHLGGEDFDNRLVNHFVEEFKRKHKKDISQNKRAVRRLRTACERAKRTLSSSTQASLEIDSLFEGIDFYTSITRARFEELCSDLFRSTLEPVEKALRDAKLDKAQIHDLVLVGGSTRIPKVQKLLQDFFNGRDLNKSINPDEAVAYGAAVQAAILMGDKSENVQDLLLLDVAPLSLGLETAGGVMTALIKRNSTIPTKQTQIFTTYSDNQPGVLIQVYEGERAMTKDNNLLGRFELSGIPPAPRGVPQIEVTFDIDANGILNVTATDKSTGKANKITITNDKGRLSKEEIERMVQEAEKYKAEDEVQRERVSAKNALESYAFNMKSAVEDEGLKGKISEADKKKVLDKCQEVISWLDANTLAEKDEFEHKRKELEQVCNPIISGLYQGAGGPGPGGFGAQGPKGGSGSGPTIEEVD

CN(CCCC(=O)NCCCCCCNc1ncnc2c1nc(NCc1ccc3ncccc3c1)n2[C@@H]1O[C@H](COCc2ccc(C(F)(F)F)cc2)[C@@H](O)[C@H]1O)C(=O)c1ccccc1-c1c2ccc(=N)c(S(=O)(=O)O)c-2oc2c(S(=O)(=O)O)c(N)ccc12 [compound 11]
Z' (FP assay with HSP72): 0.63 | assay (binding) window (presence vs absence of 5 μM HSP72): greater than 150 mP
